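Step 1: Grow cells in 96-well plates. Step 2: Expose to compound for 48 hours at 5 concentrations. Step 3: Interpolate endpoints linearly; if unreached, use highest concentration. GI50 is the concentration that inhibits growth by half. TGI is the concentration that stops growth completely.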
Experiments:
Assay in all cases: NCI anticancer screen, dose series, 48 h
SR leukemia = system: SR leukemia
U251 CNS = system: U251 CNS
MOLT-4 leukemia = system: MOLT-4 leukemia
OVCAR-3 ovarian = system: OVCAR-3 ovarian
IGROV1 ovarian = system: IGROV1 ovarian
MDA-MB-435 = system: MDA-MB-435
MDA-MB-231 breast = system: MDA-MB-231 breast
UO-31 renal = system: UO-31 renal
M14 melanoma = system: M14 melanoma
A498 renal = system: A498 renal

Structure (SMILES) | GI50 (SR leukemia) | TGI (SR leukemia) | GI50 (U251 CNS) | TGI (U251 CNS) | GI50 (MOLT-4 leukemia) | TGI (MOLT-4 leukemia) | GI50 (OVCAR-3 ovarian) | TGI (OVCAR-3 ovarian) | GI50 (IGROV1 ovarian) | TGI (IGROV1 ovarian) | GI50 (MDA-MB-435) | TGI (MDA-MB-435) | GI50 (MDA-MB-231 breast) | TGI (MDA-MB-231 breast) | GI50 (UO-31 renal) | TGI (UO-31 renal) | GI50 (M14 melanoma) | TGI (M14 melanoma) | GI50 (A498 renal) | TGI (A498 renal)
CN=C(N)c1ccc(N=C(N)c2ccc(-c3ccc(C(N)=Nc4ccc(C(N)=NC)cc4)cc3)cc2)cc1 | > 100 µM | > 100 µM | 55.5 µM | > 100 µM | > 100 µM | > 100 µM | > 100 µM | > 100 µM | 38.6 µM | > 100 µM | 59.2 µM | > 100 µM | > 100 µM | > 100 µM | > 100 µM | > 100 µM | 82.2 µM | > 100 µM | > 100 µM | > 100 µM
C#Cc1cccc(Nc2ncnc3cc(NC(=O)CCl)ccc23)c1 | 0.535 µM | 4.08 µM | 0.789 µM | 2.92 µM | 0.739 µM | 3.45 µM | 1.37 µM | 5.42 µM | 1.43 µM | 6.84 µM | 1.27 µM | 5.17 µM | 3.35 µM | 7.28 µM | 2.55 µM | 5.6 µM | 2.56 µM | 6.4 µM | 2.77 µM | 7.28 µM
COc1cc2oc(-c3cccc(C(=O)Nc4ccc(Cl)cc4)c3)cc(=O)c2c(OC)c1OC | 0.493 µM | > 100 µM | 4.08 µM | > 100 µM | 2.22 µM | > 100 µM | 3.6 µM | > 100 µM | 2.31 µM | > 100 µM | 3.15 µM | > 100 µM | 1.58 µM | > 100 µM | 2.85 µM | > 100 µM | 1.38 µM | 4.73 µM | 2 µM | 7.82 µM
CN1CCN(CC(=O)N(C)c2ccc(N=C(c3ccccc3)c3c(O)[nH]c4ccc(C#N)cc34)cc2)CC1 | 0.721 µM | 5.62 µM | 2.14 µM | 6.88 µM | 0.601 µM | 9.38 µM | 3.19 µM | 14.2 µM | 3.33 µM | 15.5 µM | 1.66 µM | 4.04 µM | 2.66 µM | 6.32 µM | 2.42 µM | 11.4 µM | 1.51 µM | 3.27 µM | 0.176 µM | 2.46 µM
Clc1nccc2c(-c3csc(-c4c[nH]c5ccc(Br)cc45)n3)c[nH]c12 | 1.27 µM | > 100 µM | 2.05 µM | 5.02 µM | 3.02 µM | 13.9 µM | 3.45 µM | 15 µM | 2.51 µM | 15.4 µM | 3.43 µM | 13 µM | 1.68 µM | 4.62 µM | 0.932 µM | 11.5 µM | 2.22 µM | 5.62 µM | 1.56 µM | 4.84 µM
NC(N)=N/N=C/c1c(-c2ccsc2)nc2n1CCS2 | 12.1 µM | 28.8 µM | 14.6 µM | 35.7 µM | 15.3 µM | 42.9 µM | 0.365 µM | 24.1 µM | 48.8 µM | > 100 µM | 19.8 µM | 47.9 µM | 28.1 µM | 82.1 µM | 65.5 µM | > 100 µM | 15.1 µM | 29.1 µM | 64.1 µM | > 100 µM

Source: PubChem BioAssay (NCI)
